{
  "source": "patent US3959272A",
  "about": "“Aminoalkyl esters of 2-anilino-nicotinic acids” (Societe Anonyme dite: Hexachime, priority 1972, dated 1976)",
  "key": {"[1]": {"assay": "Anti-inflammatory activity: oedema provoked by carragenin in the rat", "assay_type": "in vivo", "details": "po, read-out: percentage inhibition of oedema", "description": "The method used was as follows.\nThe anti-inflammatory activity was measured on oedema provoked by carragenin in the rat. Groups of six male rats each weighing 120 to 130 g received the compound under test orally in suspension in \"tween 80\", half the dose being given 2 hours before and the other half 1/2 hour before the subcutaneous plantar injection of 0.05 ml of a 1 % carragenin solution. The volume of the injected paw was measured by plethysmography at regular intervals. Table 1 below gives the percentage inhibition of the oedema with reference to untreated controls."}, "[2]": {"assay": "Analgesic activity: Siegmund's test (phenylbenzoquinone painful reactions)", "assay_type": "in vivo", "details": "Mus musculus, po, read-out: percentage inhibition of reactions", "description": "This activity was measured by Siegmund's test in mice and Randall and Selitto's test in the rat.\nGroups of six mice received the compound under test orally 1 hour before intraperitoneal injection of 0.2 ml of an 0.02% of solution of phenylbenzoquinone. The number of painful reactiors from the fifth to the tenth minute after the injection of phenylbenzoquinone was counted."}, "[3]": {"assay": "Analgesic activity: Randall and Selitto's test (beer yeast paw, pain threshold)", "assay_type": "in vivo, rat", "description": "This activity was measured by Siegmund's test in mice and Randall and Selitto's test in the rat. Groups of ten male rats each weight 120 to 140 g received by subcutaneous plantar injection 0.05 ml of a 5% aqueous suspension of beer yeast. 2 Hours after this treatment they received the compound under test orally and 1 hour after administration of this compound the paw which had been injected and the contralateral paw were subjected to increasing pressure. The appearance of the pain threshold was noted."}, "Escape test": {"assay": "Escape test", "assay_type": "in vivo", "details": "Mus musculus, ip, 0.5 h, read-out: Percentage inhibition (number of attempts to escape)", "description": "Groups of 8 mice were placed in sub groups of 4 in an enclosure from which they could escape by an inclined plane. The number of attempts to escape during 5 minutes were counted half an hour after intraperitoneal administration of the compound under test."}, "[4]": {"assay": "Antagonism of convulsions produced by cardiazole", "assay_type": "in vivo", "details": "Mus musculus, ip, read-out: Percentage inhibition of tonic convulsions", "description": "Groups of 6 mice received the compound under test 30 minutes before introperitoneal injection of 160 mg/kg of cardiazole. The action of the compound under test on the tonic convulsion phase was observed."}, "Solubility in water": {"assay": "Solubility in water", "assay_type": "physicochemical", "details": "monohydrochloride"}},
  "data": [
    {"smiles": "Cc1cccc(Nc2ncccc2C(=O)OCC(C)(C)N(C)C)c1C", "note": "[Example 3, 2-Dimethylamino-2-methylpropyl nixylate]", "values": [
      {"measurement": "inhibition in vivo at 128 mg/kg", "setting": "[1]; 128 mg/kg orally", "result": 0, "unit": "%"},
      {"measurement": "inhibition in vivo at 256 mg/kg", "setting": "[1]; 256 mg/kg orally", "result": 72, "unit": "%"},
      {"measurement": "inhibition in vivo at 512 mg/kg", "setting": "[1]; 512 mg/kg orally", "result": 67, "unit": "%"},
      {"measurement": "inhibition in vivo at 64 mg/kg", "setting": "[2]; 64 mg/kg orally", "result": 31, "unit": "%"},
      {"measurement": "inhibition in vivo at 128 mg/kg", "setting": "[2]; 128 mg/kg orally", "result": 49, "unit": "%"},
      {"measurement": "inhibition in vivo at 256 mg/kg", "setting": "[2]; 256 mg/kg orally", "result": 75, "unit": "%"},
      {"measurement": "percentage increase of pain threshold", "setting": "[3]; with yeast, 16 mg/kg orally", "result": 33, "unit": "%"},
      {"measurement": "percentage increase of pain threshold", "setting": "[3]; with yeast, 32 mg/kg orally", "result": 42, "unit": "%"},
      {"measurement": "percentage increase of pain threshold", "setting": "[3]; with yeast, 64 mg/kg orally", "result": 66, "unit": "%"},
      {"measurement": "percentage increase of pain threshold", "setting": "[3]; with yeast, 128 mg/kg orally", "result": 41, "unit": "%"},
      {"measurement": "percentage increase of pain threshold", "setting": "[3]; without yeast, 32 mg/kg orally", "result": 0, "unit": "%"},
      {"measurement": "percentage increase of pain threshold", "setting": "[3]; without yeast, 64 mg/kg orally", "result": 2, "unit": "%"},
      {"measurement": "percentage increase of pain threshold", "setting": "[3]; without yeast, 128 mg/kg orally", "result": 11, "unit": "%"},
      {"measurement": "percentage increase of pain threshold", "setting": "[3]; without yeast, 256 mg/kg orally", "result": 0, "unit": "%"},
      {"measurement": "change in vivo at 8 mg/kg", "setting": "Escape test; 8 mg/kg intraperitoneally", "result": -16, "unit": "%"},
      {"measurement": "change in vivo at 16 mg/kg", "setting": "Escape test; 16 mg/kg intraperitoneally", "result": -15, "unit": "%"},
      {"measurement": "change in vivo at 32 mg/kg", "setting": "Escape test; 32 mg/kg intraperitoneally", "result": -30, "unit": "%"},
      {"measurement": "change in vivo at 64 mg/kg", "setting": "Escape test; 64 mg/kg intraperitoneally", "result": -67, "unit": "%"},
      {"measurement": "change in vivo at 128 mg/kg", "setting": "Escape test; 128 mg/kg intraperitoneally", "result": -95, "unit": "%"},
      {"measurement": "inhibition in vivo at 8 mg/kg", "setting": "[4]; 8 mg/kg intraperitoneally", "result": 0, "unit": "%"},
      {"measurement": "inhibition in vivo at 16 mg/kg", "setting": "[4]; 16 mg/kg intraperitoneally", "result": 5, "unit": "%"},
      {"measurement": "inhibition in vivo at 32 mg/kg", "setting": "[4]; 32 mg/kg intraperitoneally", "result": 16, "unit": "%"},
      {"measurement": "inhibition in vivo at 64 mg/kg", "setting": "[4]; 64 mg/kg intraperitoneally", "result": 83, "unit": "%"},
      {"measurement": "inhibition in vivo at 128 mg/kg", "setting": "[4]; 128 mg/kg intraperitoneally", "result": 100, "unit": "%"},
      {"measurement": "solubility in water", "setting": "Solubility in water", "result": "soluble in water"}
    ]}
  ]
}
